Laboratory results from ChEMBL document CHEMBL1131171, “Three-dimensional quantitative structure-activity relationship study of the cannabimimetic (aminoalkyl)indoles using comparative molecular field analysis” (J Med Chem, 1998).
pKi: −log10 of the molar value.

These compounds were tested against Cannabinoid receptor 1 (Rattus norvegicus, UniProt P20272) (assay: Cannabinoid receptor 1 binding affinity by measuring its ability to displace [3H]WIN-55212-2 in rat forebrain membranes).
Format: cell membranes, Membrane

Cannabinoid receptor 1, sequence (P20272 whole entry): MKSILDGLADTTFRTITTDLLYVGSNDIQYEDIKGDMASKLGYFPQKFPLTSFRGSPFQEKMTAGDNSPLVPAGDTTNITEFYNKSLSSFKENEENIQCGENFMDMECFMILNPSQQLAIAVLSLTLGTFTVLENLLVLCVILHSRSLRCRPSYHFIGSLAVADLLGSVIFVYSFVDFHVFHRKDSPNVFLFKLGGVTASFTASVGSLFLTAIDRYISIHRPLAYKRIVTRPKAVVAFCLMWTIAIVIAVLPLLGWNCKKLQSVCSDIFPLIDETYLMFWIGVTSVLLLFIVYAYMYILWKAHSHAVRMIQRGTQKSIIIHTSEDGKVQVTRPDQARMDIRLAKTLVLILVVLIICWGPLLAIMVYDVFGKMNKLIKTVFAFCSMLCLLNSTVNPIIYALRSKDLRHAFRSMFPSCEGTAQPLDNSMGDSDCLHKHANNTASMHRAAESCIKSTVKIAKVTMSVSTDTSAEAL

| Compound | pKi |
| --- | --- |
| O=C(c1c2ccccc2cc2ccccc12)c1cn(CCN2CCOCC2)c2ccccc12 | 3.37 |
| Cc1c(C(=O)c2cccc(Cl)c2)c2ccccc2n1CCN1CCOCC1 | 3.02 |
| COc1ccc(C(=O)c2c(C)n(CCN3CCOCC3)c3c(C)cccc23)cc1 | 3.08 |
| Cc1ccc(C(=O)c2c(C)n(CCN3CCOCC3)c3ccccc23)cc1 | 3.15 |
| COc1ccc(C(=O)c2c(C)n(CCN3CCOCC3)c3cc(C)ccc23)cc1 | 3.17 |
| COc1ccc(C(=O)c2c(C)n(CCN3CCOCC3)c3cc(OC)ccc23)cc1 | 3.06 |
